This note sets out measurements from patent US20230233617A1, “METHODS FOR DIFFERENTIATING STEM CELLS INTO DOPAMINERGIC PROGENITOR CELLS” (JZ CELL TECHNOLOGIES AB, priority 2020, published 2023).

This test deals with hESCs. The experiment in a line: Conversion of hPSCs into NSCs (OCT4, SOX1, PAX6 expression) in dSMADi cultures. It counts as cell-based, human. The procedure:
To explore the activities of RA on hESCs directed to adopt a neural fate in response to dSMADi^14, we treated cultures with 200 nM all-trans RA for the first 1, 2, 3 or 4 days of differentiation (RA^1D, RA^2D, RA^3D, RA^4D) (FIG. 1a) and monitored fate and identity of cells at different stages by immunoblotting, quantitative immunocytochemistry, qPCR or RNA-sequencing (RNA-seq). […] Induction of SOX1 and PAX6 at low levels occurred at 3 DDC (FIG. 1b). OCT4 and SOX1 were co-expressed by cells between 3-4 DDC (FIG. 1b, c; FIG. 7a (Supplementary FIG. 1a)) showing that the conversion of hPSCs into NSCs in response to dSMADi-treatment encompass a protracted time-window over which expression of pluripotency- and neural-specific genes overlap. […] By 7 DDC, SOX1 and neural marker NESTIN were expressed at similar levels in dSMADi-only and in dSMADi+RA^2D cultures (FIG. 1d). […] Endodermal or mesodermal lineage markers were not expressed (FIG. 7b (Supplementary FIG. 1b)). In dSMADi+RA^2D conditions, prompt suppression of OCT4 and fast upregulation of SOX1 was attained within a concentration range of RA between 50-500 nM (FIG. 1g). […] Thus, combining dSMADi treatment with exposure of hPSCs to RA for 48 hours or longer promotes a rapid and switch-like transition from pluripotency into a NSC-state.
80-90% confluent PSCs cultures were rinsed twice with PBS, treated with EDTA (0.5 mM in PBS) for 5-7 min, and resuspended into single cell suspension in PBS. Cells were spin down at 400 g and resuspended in N2B27 medium (DMEM/F12: Neurobasal (1:1), 0.5×N2 and 0.5×B27 (plus vitamin A) supplements, 1×nonessential amino acids, 1% GlutaMAX, 55 μM β-mercaptoethanol-all from Thermo Fisher Scientific) containing 5 μM SB431542 (Miltenyi Biotech) and 2.5 μM DMH1 (Santa Cruz Biotech) (dual SMAD inhibition), and 10 μM ROCK inhibitor (for the first 48 hours after seeding). Cells were seeded on VTN (2 μg/cm^2) and Fibronectin (FN) (2 μg/cm^2) (Sigma) coated surface at a density of 60,000-80,000 cells/cm^2 for RA- and RA-analogues based experiments, and 20,000 cells/cm^2 for CHIR99021 experiments. […]

The structures appear in SMILES notation.

As to `CC1=C(/C=C/C(C)=C/C=C/C(C)=C/C(=O)O)C(C)(C)CCC1` [RA, all-trans retinoic acid], the “rapid OCT4 suppression and fast upregulation of SOX1” value (200 nM RA for one day (dSMADi+RA^1D)) is recorded as “not sufficient to promote rapid OCT4 suppression nor fast upregulation of SOX1”. For the setting “dSMADi and 200 nM RA for two days or longer”, the OCT4 expression entry is given as “expression of OCT4 had essentially been extinguished by 3 DDC”. For the same compound, for the setting “dSMADi+RA^2D, 3 DDC”, the “concentration range of RA giving prompt suppression of OCT4 and fast upregulation of SOX1” value was 50 to 500 nM.
